Results taken from ChEMBL document CHEMBL1141915, “1,3-Dioxo-4-methyl-2,3-dihydro-1H-pyrrolo[3,4-c]quinolines as potent caspase-3 inhibitors” (Bioorg Med Chem Lett, 2005).

Biological target: T1, Caspase-3 (Homo sapiens, UniProt P42574)
T1 sequence (P42574 whole entry): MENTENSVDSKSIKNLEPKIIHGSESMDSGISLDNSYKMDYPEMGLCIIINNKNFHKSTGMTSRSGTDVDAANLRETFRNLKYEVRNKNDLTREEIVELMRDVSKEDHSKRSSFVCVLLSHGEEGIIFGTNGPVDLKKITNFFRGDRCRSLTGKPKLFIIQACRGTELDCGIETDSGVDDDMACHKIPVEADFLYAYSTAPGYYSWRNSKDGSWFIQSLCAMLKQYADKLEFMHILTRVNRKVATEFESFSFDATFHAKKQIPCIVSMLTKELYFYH
Test: In vitro inhibitory concentration measured against caspase-3

Row | Compound | IC50 [µM]
1 | Cc1nc2ccccc2c2c1C(=O)N(C)C2=O | 6.36
2 | Cc1nc2ccccc2c2c1C(=O)NC2=O | > 100
